# Assay results: patent US11433045B2, “Treatment of metabolic disorders in canine animals” (Boehringer Ingelheim Vetmedica GmbH, priority 2014, dated 2022)
# Conditions: various environmental conditions and during production of a medicament
smiles,measurement,value
N#Cc1ccc([C@@H]2O[C@H](CO)[C@@H](O)[C@H](O)[C@H]2O)cc1Cc1ccc(C2CC2)cc1.O=C(O)[C@@H]1CCCN1,physical and chemical stability,high physical and chemical stability
